Test system: AvsYS1 avenic acid/Fe+3 transporter
Test: Yeast growth assay in liquid medium; only iron available is Fe+3 complexed with the phytosiderophore or analog; DEY1453:pJKD1 (pYES2/AvsYS1) vs DEY1453:pYES2
Assay type: cell-based, Avena sativa
Settings: for growth of yeast transformants containing pJKD1 (AvsYS1 transporter): S. cerevisiae DEY1453:pJKD1, ferric iron supplied only as complex with the substance, YNB pH 7.5, BPDS
Description: AvsYS1 (Genbank FJ477297.1) was isolated using 5′RACE from the roots of iron starved oats (Avena sativa). Primers were designed by comparing one functionally confirmed phytosiderophore/Fe′ transporter (HvYS1) and other iron transport proteins. After obtaining a full-length clone, we subcloned the gene (AvsYS1) into a yeast galactose inducible expression vector (pYES2). The resultant plasmid was designated pJKD1. We obtained a yeast strain that lacks the ability to take up ferric iron, and transformed it with pYES2 and pJKD1. The transformants were grown under identical conditions in which the only iron available was in the Fe^+3/avenic acid complex.
We engineered the AvsYS1 gene into a galactose inducible expression systems vector (pYES2). Our first major result was the functional confirmation of the AvsYS1 gene. We transformed pYES2 and pJKD1 (pYES2/AvsYS1) into a strain of S. cerevisiae (DEY1453) that lacks the ability to take up Fe^+3. In the process, we developed a new assay based on growth in liquid medium. The advantage of this assay over more traditional assays used in yeast-based PS/Fe^+3 assays is that it is quantifiable. Other assays (e.g., Murata, 2006) grow yeast on a solid plate, and qualitative growth of colonies is used. With our assay, we can generate numerical data based on the density as measured by the absorbance at 600 nm. […] Further detail is provided below.
Protocols included: 53Y and 53K in DOB+FeSO4, 53Y and 53K in YNB supplemented with Avenic acid; 53Y and 53K supplemented with BPA-1-068B; 53Y and 53K in YNB w/no supplements; uninoculated YNB; uninoculated DOB.
Protocols included: 53Y and 53K, supplemented with Avenic acid, 53Y and 53K supplemented with BPA-1-068B, 53Y and 53K in YNB w/no supplements.
Strains grown in YNB/Gal, pH 7.5, Amp50, Avenic acid: Fe^+3, 5:1
Protocols included: 53Y(pYES2) and 53K(pJKD1=pYES2+AvsYS1), supplemented with Avenic acid (red arrows); 53Y and 53K supplemented with BPA-1-068B (blue arrows); 53Y and 53K in YNB w/no supplements.

Q: `O=C(CC(NCCC(NCC[C@H](O)C(=O)O)C(=O)O)C(=O)O)OCc1ccccc1O` (some centres unmarked) [BPA-1-068B] was tested. Which “growth rate of DEY1453:pJKD1” value (Fe+3 complexed with the analog, robustness compared to DEY1453:pYES2 controls) did it give?
A: Its value is “slower, but undeniably robust”.

Q: What about the “growth of yeast transformants containing pJKD1 (AvsYS1 transporter)” value (from here on “growth … (AvsYS1 transporter)”) of the same compound?
A: The value was “able to grow”.

Q: For `O=C(O)C(CO)NCCC(NCC[C@H](O)C(=O)O)C(=O)O` (some centres unmarked) [MGS-2-128BF], which “growth … (AvsYS1 transporter)” value is on record?
A: Its value is “supported growth as well as avenic acid”.

Q: How did the “growth … (AvsYS1 transporter)” value turn out when `O=C(O)C(CCO)NCCC(NCC[C@H](O)C(=O)O)C(=O)O` (some centres unmarked) [avenic acid] was run?
A: Its value is “able to grow vigorously”.

Q: What about the “growth of yeast transformants with pYES2 (no transporter)” value (S. cerevisiae DEY1453:pYES2, only iron available is the Fe+3 complex with the substance) of the same compound?
A: The value was “could not”.
